# Test results published in US11306084B2, “Integrin antagonists” (Saint Louis University, priority 2016, dated 2022).
# pIC50: −log10 of the molar value. Where a name gives a salt, the structure may show the parent alone.
# What was measured:
# Type in all cases: binding
# [1] = target: T1, Recombinant human integrin ανβ6 (Homo sapiens, UniProt P06756+P18564); test: Solid Phase Receptor Assay (SPRA) for ανβ6 function; details: plate-bound human LAP; read-out: αvβ6 SPRA IC50
# T1 construct: purchased R&D Systems 3817-AV
# Description: E. Solid Phase Receptor Assay (SPRA) for ανβ6 Function
# Wells were washed 3 times with 150 μL TBS+, and then 150 μL of blocking buffer (TBS+ with 1% bovine serum albumin, Sigma A7906) was added. The plate was incubated for 1 hr at 37° C., and then washed 3× with TBS+ buffer. […] Compounds were diluted to 20 μM and then 1 μL was added to each well of the plate according to a standard template with each sample repeated in triplicate. After incubation for two hours at room temperature, the plate was washed 3× with 150 μL of TBS+ buffer. To each well, 50 μL of biotinylated anti-αν antibody (R&D Systems, BAF1219) at 0.5 μg/mL in TBS+/0.1% BSA were added and the plate was covered and incubated for 1 hr at room temperature. After washing the plate 3× with 150 μL of TBS+ buffer, 50 μL of streptavidin-conjugated horseradish peroxidase (R&D Systems, DY998) diluted in TBS+ blocking buffer were added to the wells and the plate incubated for 20 min at room temperature. The plate was washed 3× with TBS+ buffer followed by 50 μL of TMB substrate (Sigma T4444) added to each well in the dark and the plate incubated for 10 min at room temperature. 25 μL of 1.0 M phosphoric acid was added as a stop solution and the plates were read at 450 nm using a Spectramax plate reader.
# [2] = target: T2, Recombinant human integrin ανβ3 (Homo sapiens, UniProt P05106+P06756); test: Solid Phase Receptor Assay (SPRA) for ανβ3 function; details: plate-bound human vitronectin; read-out: αvβ3 SPRA IC50
# T2 construct: purchased R&D Systems 3050-AV
# Description: C. Solid Phase Receptor Assay (SPRA) for ανβ3 Function
# Wells were washed 3 times with 150 μL TBS+ and then 150 μL of blocking buffer (TBS+ with 1% bovine serum albumin, Sigma A7906) was added. The plate was incubated for 1 hr at 37° C. and then washed 3× with TBS+ buffer. […] Compounds were diluted to 20 μM and then 1 μL was added to each well of the plate according to a standard template with each sample repeated in triplicate. After incubation for two hours at room temperature, the plate was washed 3× with 150 μL of TBS+ buffer. To each well, 50 μL of biotinylated anti-αν antibody (R&D Systems, BAF1219) at 0.5 μg/mL in TBS+/0.1% BSA were added and the plate covered and incubated for 1 hr at room temperature. After washing the plate 3× with 150 μL of TBS+ buffer, 50 μL of streptavidin-conjugated horseradish peroxidase (R&D Systems, DY998) diluted in TBS+ blocking buffer were added to the wells and the plate incubated for 20 min at room temperature. The plate was washed 3× with TBS+ buffer followed by 50 μL of TMB substrate (Sigma, T4444) added to each well in the dark and the plate was incubated for 25 min at room temperature. 25 μL of 1.0 M phosphoric acid was added as a stop solution and the plates were read at 450 nm using a Spectramax plate reader.
# [3] = target: T3, Recombinant human integrin ανβ8 (Homo sapiens, UniProt P06756+P26012); test: Solid Phase Receptor Assay (SPRA) for ανβ8 function; details: plate-bound human LAP; read-out: αvβ8 SPRA IC50
# T3 construct: purchased R&D Systems 4135-AV
# Description: F. Solid Phase Receptor Assay (SPRA) for ανβ8 Function
# Wells were washed 3 times with 150 μL TBS+ and then 150 μL of blocking buffer (TBS+ with 1% bovine serum albumin, Sigma A7906) was added. The plate was incubated for 1 hr at 37° C. and then washed 3× with TBS+. […] Compounds were diluted to 20 μM and 1 μL was added to each well of the plate according to a standard template with each sample repeated in triplicate. After incubation for two hours at room temperature, the plate was washed 3× with 150 μL of TBS+. To each well, 50 μL of biotinylated anti-αν antibody (R&D Systems, BAF1219) at 1 μg/mL in TBS+/0.1% BSA were added and the plate was covered and incubated for 1 hr at room temperature. After washing the plate 3× with 150 μL. of TBS+ buffer, 50 μL of streptavidin-conjugated horseradish peroxidase (R&D Systems, DY998) diluted in TBS+ blocking buffer were added to the wells and the plate incubated for 20 min at room temperature. The plate was washed 3× with TBS+ followed by 50 μL of TMB substrate (Sigma T4444) added to each well in the dark and the plate incubated for 10 min at room temperature. 25 μL of 1.0 M phosphoric acid was added as a stop solution and the plates were read at 450 nm using a Spectramax plate reader.
# [4] = target: T4, Recombinant human integrin α5β1 (Homo sapiens, UniProt P05556+P08648); test: Solid Phase Receptor Assay (SPRA) for α5β1 function; details: plate-bound human fibronectin
# T4 construct: purchased R&D Systems 3230-A5
# Description: A. Solid Phase Receptor Assay (SPRA) for α5β1 Function
# Wells were washed 3 times with 150 μL TBS+ and then 150 μL of blocking buffer (TBS+ with 1% bovine serum albumin, Sigma A7906) was added. The plate was incubated for 1 hr at 37° C. and then washed 3× with TBS+ buffer. […] Compounds were diluted to 20 μM and then 1 μL was added to each well of the plate according to a standard template with each sample repeated in triplicate. After incubation for two hours at room temperature, the plate was washed 3× with 150 μL of TBS+ buffer. To each well, 50 μL of biotinylated anti-α5 antibody (R&D Systems, BAF1864) at 0.5 μg/mL in TBS+/0.1% BSA were added and the plate covered and incubated for 1 hr at room temperature. After washing the plate 3× with 150 μL of TBS+ buffer, 50 μL of streptavidin-conjugated horseradish peroxidase (R&D Systems, DY998) diluted in TBS+ blocking buffer were added to the wells and the plate incubated for 20 min at room temperature. The plate was washed 3× with TBS+ buffer followed by 50 μL of room temperature TMB substrate (Sigma, T4444) added to each well in the dark and the plate incubated for 25 min at room temperature. 25 μL of 1.0 M phosphoric acid was added as a stop solution and the plates were read at 450 nm using a Spectramax plate reader.
# T4 sequence (P08648 42-995 limits assumed): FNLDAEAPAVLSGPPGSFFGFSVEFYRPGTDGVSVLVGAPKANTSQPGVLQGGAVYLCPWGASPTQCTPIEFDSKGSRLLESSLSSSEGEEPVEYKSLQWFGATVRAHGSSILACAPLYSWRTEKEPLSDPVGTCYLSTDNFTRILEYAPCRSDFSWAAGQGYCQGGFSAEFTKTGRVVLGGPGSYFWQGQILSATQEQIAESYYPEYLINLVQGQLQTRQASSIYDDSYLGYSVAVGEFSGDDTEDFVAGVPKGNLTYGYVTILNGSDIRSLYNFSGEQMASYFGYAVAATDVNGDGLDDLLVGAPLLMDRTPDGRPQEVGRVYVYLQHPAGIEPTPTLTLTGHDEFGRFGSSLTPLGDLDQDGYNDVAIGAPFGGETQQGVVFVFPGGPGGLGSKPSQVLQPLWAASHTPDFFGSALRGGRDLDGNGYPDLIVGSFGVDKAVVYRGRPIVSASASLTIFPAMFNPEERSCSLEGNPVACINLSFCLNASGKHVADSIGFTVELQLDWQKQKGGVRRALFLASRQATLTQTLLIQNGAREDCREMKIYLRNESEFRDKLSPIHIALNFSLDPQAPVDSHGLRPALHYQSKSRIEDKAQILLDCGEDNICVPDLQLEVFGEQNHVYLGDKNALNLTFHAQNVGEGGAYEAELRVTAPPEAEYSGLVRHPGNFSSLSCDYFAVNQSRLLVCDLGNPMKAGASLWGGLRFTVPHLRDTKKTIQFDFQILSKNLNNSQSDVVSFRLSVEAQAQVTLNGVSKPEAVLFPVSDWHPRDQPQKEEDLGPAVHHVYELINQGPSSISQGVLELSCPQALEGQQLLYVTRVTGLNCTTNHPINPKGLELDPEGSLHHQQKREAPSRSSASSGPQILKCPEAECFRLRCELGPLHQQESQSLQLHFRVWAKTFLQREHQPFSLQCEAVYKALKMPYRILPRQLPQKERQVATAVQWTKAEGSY
# T4 sequence (P05556 21-728 limits assumed): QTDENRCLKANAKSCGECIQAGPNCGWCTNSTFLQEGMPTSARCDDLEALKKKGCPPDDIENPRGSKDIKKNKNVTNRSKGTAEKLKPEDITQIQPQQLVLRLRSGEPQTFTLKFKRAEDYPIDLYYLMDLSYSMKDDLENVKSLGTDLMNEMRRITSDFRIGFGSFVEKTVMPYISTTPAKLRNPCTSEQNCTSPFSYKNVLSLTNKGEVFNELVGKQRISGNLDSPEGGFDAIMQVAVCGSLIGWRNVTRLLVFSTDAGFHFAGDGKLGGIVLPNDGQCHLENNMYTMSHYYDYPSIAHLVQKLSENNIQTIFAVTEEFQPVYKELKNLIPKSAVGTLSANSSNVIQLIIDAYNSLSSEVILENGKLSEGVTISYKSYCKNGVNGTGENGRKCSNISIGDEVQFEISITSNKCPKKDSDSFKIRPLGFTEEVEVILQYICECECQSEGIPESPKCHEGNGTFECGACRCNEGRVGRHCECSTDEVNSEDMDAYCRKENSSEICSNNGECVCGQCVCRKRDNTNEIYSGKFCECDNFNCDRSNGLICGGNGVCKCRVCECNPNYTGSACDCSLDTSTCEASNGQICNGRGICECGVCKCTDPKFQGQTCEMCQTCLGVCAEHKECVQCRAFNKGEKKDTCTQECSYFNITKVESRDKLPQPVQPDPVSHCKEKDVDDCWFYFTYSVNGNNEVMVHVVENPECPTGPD
# T1 sequence (P06756 31-992 limits assumed): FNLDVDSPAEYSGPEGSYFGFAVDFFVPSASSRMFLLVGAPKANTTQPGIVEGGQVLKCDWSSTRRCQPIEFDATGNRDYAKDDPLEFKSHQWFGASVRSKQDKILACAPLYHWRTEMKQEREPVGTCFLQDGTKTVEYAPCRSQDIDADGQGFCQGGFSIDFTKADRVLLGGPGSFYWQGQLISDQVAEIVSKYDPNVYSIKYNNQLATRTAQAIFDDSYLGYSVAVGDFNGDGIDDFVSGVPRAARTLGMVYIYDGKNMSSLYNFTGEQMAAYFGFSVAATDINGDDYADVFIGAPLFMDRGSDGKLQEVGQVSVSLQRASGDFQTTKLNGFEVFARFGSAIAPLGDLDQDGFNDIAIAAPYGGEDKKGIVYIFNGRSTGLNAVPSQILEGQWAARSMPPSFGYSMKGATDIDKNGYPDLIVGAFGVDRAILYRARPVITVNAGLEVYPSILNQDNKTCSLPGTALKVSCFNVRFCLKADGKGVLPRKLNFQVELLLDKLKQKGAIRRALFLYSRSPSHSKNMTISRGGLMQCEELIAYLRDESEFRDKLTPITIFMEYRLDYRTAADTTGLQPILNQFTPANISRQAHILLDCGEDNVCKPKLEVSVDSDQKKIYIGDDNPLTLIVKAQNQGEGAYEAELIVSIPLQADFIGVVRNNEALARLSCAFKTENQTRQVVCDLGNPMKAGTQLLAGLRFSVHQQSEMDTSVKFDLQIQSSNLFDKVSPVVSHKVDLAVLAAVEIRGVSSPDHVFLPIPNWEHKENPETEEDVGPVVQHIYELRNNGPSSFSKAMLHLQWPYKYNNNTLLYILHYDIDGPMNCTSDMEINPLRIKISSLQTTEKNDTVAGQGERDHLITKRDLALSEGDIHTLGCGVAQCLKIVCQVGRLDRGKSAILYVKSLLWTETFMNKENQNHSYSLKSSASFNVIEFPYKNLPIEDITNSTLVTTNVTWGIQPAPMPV
# T1 sequence (P18564 22-707 limits assumed): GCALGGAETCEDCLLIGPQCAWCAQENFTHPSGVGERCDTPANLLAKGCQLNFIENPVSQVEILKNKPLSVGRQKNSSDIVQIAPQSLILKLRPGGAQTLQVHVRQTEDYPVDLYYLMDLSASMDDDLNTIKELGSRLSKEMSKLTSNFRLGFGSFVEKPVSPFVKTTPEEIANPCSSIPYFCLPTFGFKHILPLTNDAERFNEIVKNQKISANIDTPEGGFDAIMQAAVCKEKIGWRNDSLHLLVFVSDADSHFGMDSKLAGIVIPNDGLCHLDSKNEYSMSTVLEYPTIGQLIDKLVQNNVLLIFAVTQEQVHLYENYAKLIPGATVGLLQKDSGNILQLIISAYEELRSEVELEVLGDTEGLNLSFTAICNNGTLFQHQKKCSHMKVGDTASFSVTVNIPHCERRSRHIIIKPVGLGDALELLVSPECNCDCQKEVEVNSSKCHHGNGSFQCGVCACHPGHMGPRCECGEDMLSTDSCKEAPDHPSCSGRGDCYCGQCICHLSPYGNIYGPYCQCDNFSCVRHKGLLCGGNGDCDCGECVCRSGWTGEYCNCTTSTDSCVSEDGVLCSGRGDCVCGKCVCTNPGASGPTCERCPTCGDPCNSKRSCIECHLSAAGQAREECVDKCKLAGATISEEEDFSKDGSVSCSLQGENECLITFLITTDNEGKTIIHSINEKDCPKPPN
# T3 sequence (P06756 31-992 limits assumed): as the sequence (P06756 31-992 limits assumed) above
# T3 sequence (P26012 43-684 limits assumed): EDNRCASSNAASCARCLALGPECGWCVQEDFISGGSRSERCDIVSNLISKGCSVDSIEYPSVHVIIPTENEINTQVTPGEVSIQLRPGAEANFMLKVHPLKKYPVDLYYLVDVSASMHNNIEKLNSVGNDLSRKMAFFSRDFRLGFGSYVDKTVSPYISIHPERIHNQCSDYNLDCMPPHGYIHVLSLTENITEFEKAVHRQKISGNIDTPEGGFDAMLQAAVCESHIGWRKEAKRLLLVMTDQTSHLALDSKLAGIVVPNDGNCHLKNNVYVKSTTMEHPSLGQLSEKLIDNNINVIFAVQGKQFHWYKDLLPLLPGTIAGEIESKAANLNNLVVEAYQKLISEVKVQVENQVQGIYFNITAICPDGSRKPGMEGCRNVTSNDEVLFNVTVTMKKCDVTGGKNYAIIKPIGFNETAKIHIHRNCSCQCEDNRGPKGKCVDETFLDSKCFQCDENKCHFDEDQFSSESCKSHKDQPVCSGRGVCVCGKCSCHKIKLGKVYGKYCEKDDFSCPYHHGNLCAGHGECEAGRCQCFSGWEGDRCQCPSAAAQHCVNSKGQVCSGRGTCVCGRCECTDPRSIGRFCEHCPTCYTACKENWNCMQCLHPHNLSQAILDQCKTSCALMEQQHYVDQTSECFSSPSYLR
# T2 sequence (P06756 31-992 limits assumed): as the sequence (P06756 31-992 limits assumed) above
# T2 sequence (P05106 27-718 limits assumed): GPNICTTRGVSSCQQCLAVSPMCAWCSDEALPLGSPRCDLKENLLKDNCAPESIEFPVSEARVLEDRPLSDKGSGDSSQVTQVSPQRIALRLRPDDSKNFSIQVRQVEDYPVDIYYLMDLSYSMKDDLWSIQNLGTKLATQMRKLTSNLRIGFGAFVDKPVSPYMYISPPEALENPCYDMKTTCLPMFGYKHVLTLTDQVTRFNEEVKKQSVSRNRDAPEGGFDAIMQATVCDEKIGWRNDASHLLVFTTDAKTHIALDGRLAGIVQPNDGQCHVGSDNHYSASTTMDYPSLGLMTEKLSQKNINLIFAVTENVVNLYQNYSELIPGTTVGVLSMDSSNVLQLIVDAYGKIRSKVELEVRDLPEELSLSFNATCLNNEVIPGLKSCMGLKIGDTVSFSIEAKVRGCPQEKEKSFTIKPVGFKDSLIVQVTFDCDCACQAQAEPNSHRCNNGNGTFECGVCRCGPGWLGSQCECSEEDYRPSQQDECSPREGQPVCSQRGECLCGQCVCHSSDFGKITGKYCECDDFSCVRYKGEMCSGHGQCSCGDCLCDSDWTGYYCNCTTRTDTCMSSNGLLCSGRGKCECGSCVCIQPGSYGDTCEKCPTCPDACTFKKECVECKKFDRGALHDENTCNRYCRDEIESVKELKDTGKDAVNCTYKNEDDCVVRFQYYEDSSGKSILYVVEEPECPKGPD
SMILES,pIC50 [1],pIC50 [2],pIC50 [3],pIC50 [4]
"Cn1nc(CC(CC(=O)O)c2cc(C(C)(C)C)ccc2Cl)cc1OCCc1ccc2c(n1)NCCC2 (centres unmarked) [Example 43, 3-(5-(tert-butyl)-2-chlorophenyl)-4-(1-methyl-5-(2-(5,6,7,8-tetrahydro-1,8-naphthyridin-2-yl)ethoxy)-1H-pyrazol-3-yl)butanoic Acid Trifluoroacetate]",6.10,7.03,7.06,7.11
"Cn1nc(CC(CC(=O)O)c2cc(Br)cc(OC(F)(F)F)c2)cc1OCCc1ccc2c(n1)NCCC2 (centres unmarked) [Example 11, 3-(3-bromo-5-(trifluoromethoxy)phenyl)-4-(1-methyl-5-(2-(5,6,7,8-tetrahydro-1,8-naphthyridin-2-yl)ethoxy)-1H-pyrazol-3-yl)butanoic Acid]",7.22,8.22,7.38,6.82
"COCC1(c2cc(Cl)cc(C(CC(=O)O)Cc3cc(OCCc4ccc5c(n4)NCCC5)n(C)n3)c2)CCOCC1 (centres unmarked) [Example 29, 3-(3-chloro-5-(4-(methoxymethyl)tetrahydro-2H-pyran-4-yl)phenyl)-4-(1-methyl-5-(2-(5,6,7,8-tetrahydro-1,8-naphthyridin-2-yl)ethoxy)-1H-pyrazol-3-yl)butanoic Acid]",7.28,8.28,8.02,8.29
"Cn1nc(CC(CC(=O)O)c2cccc(Br)c2)cc1OCCc1ccc2c(n1)NCCC2 (centres unmarked) [Example 6, 3-(3-bromophenyl)-4-(1-methyl-5-(2-(5,6,7,8-tetrahydro-1,8-naphthyridin-2-yl)ethoxy)-1H-pyrazol-3-yl)butanoic Acid]",8.10,8.30,7.72,6.80
"Cn1nc(CC(CC(=O)O)c2cc(Br)cc(C(C)(C)C)c2)cc1OCCc1ccc2c(n1)NCCC2 (centres unmarked) [Example 16, 3-(3-bromo-5-tert-butyl-phenyl)-4-(1-methyl-5-(2-(5,6,7,8-tetrahydro-1,8-naphthyridin-2-yl)ethoxy)-1H-pyrazol-3-yl)butanoic Acid]",7.10,8.11,8.11,7.52
Cn1nc(CC(CC(=O)O)c2cc(C#N)cc(C(C)(C)C)c2)cc1OCCc1ccc2c(n1)NCCC2 (centres unmarked) [Example 17],7.55,8.13,8.16,7.96
"Cn1nc(CC(CC(=O)O)c2cc(C#N)cc(C(C)(C)C(F)(F)F)c2)cc1OCCc1ccc2c(n1)NCCC2 (centres unmarked) [Example 28, 3-[3-cyano-5-(2,2,2-trifluoro-1,1-dimethyl-ethyl)phenyl]-4-[1-methyl-5-[2-(5,6,7,8-tetrahydro-1,8-naphthyridin-2-yl)ethoxyl]pyrazol-3-yl]butanoic Acid Trifluoroacetate]",7.82,8.00,8.46,8.07
"CC(C)(C)c1cc(Br)cc(C(CC(=O)O)Cc2cc(OCCc3ccc4c(n3)NCCC4)n(CC(F)(F)F)n2)c1 (centres unmarked) [Example 41, 3-(3-bromo-5-tert-butyl-phenyl)-4-[5-[2-(5,6,7,8-tetrahydro-1,8-naphthyridin-2-yl)ethoxy]-1-(2,2,2-trifluoroethyl)pyrazol-3-yl]butanoic Acid Trifluoroacetate]",7.07,8.05,8.16,8.19
"Cc1ccc(C(C)(C)C)cc1C(CC(=O)O)Cc1cc(OCCc2ccc3c(n2)NCCC3)n(C)n1 (centres unmarked) [Example 44, 3-(5-tert-butyl-2-methyl-phenyl)-4-[1-methyl-5-[2-(5,6,7,8-tetrahydro-1,8-naphthyridin-2-yl)ethoxy]pyrazol-3-yl]butanoic Acid Trifluoroacetate]",5.15,6.57,6.44,6.64
"Cn1nc(CC(CC(=O)O)c2cc(Br)cc(C(F)(F)F)c2)cc1OCCc1ccc2c(n1)NCCC2 (centres unmarked) [Example 10, 3-(3-bromo-5-(trifluoromethyl)phenyl)-4-(1-methyl-5-(2-(5,6,7,8-tetrahydro-1,8-naphthyridin-2-yl)ethoxy)-1H-pyrazol-3-yl)butanoic Acid]",7.60,8.44,7.92,6.92
"COc1ccc(C(C)C)cc1C(CC(=O)O)Cc1cc(OCCc2ccc3c(n2)NCCC3)n(C)n1 (centres unmarked) [Example 39, 3-(5-isopropyl-2-methoxyphenyl)-4-(1-methyl-5-(2-(5,6,7,8-tetrahydro-1,8-naphthyridin-2-yl)ethoxy)-1H-pyrazol-3-yl)butanoic Acid Trifluoroacetate]",6.64,6.54,6.96,7.51
Cn1nc(CC(CC(=O)O)c2ccc(C#N)c(F)c2)cc1OCCc1ccc2c(n1)NCCC2 (centres unmarked) [Example 8],7.28,8.22,7.32,6.78
"COc1ccc(C(=O)O)cc1C(CC(=O)O)Cc1cc(OCCc2ccc3c(n2)NCCC3)n(C)n1 (centres unmarked) [Example 48, 3-(1-carboxy-3-(1-methyl-5-(2-(5,6,7,8-tetrahydro-1,8-naphthyridin-2-yl)ethoxy)-1H-pyrazol-3-yl)propan-2-yl)-4-methoxybenzoic Acid Trifluoroacetate]",6.17,8.30,7.04,6.64
"Cn1nc(CC(CC(=O)O)c2cc(C(C)(C)C)cc(C(C)(C)C)c2)cc1OCCc1ccc2c(n1)NCCC2 (centres unmarked) [Example 18, 3-(3,5-di-tert-butylphenyl)-4-[1-methyl-5-[2-(5,6,7,8-tetrahydro-1,8-naphthyridin-2-yl)ethoxyl]pyrazol-3-yl]butanoic Acid]",6.21,7.08,7.07,8.19
